Assay results reported in patent US7498304B2, “Angiogenesis-modulating compositions and uses” (Curis, Inc., priority 2002, dated 2009).

tested on: Hedgehog pathway signaling (Shh-induced Gli-transcription) in 10T1/2(s12) cells; test: Gli-Luc assay, OCT-SHH-induced luciferase reporter; format: cell-based, mouse; conditions: Gli-Luc response, OCT-SHH 0.3 μg/ml
Description: Compounds to be tested are dissolved in DMSO to a concentration of 10 mM, and stored at −20° C. To activate the Hedgehog pathway in the assay cells, an octylated (lipid-modified) form of the N-terminal fragment of the Sonic Hedgehog protein (OCT-SHH) is used. This N-terminal SHH fragment is produced bacterially.
Compounds may be tested in the “Gli-Luc” assay below, using the cell line 10T(s12), wherein the cells contain a Hedgehog-responsive reporter construct utilizing Luciferase as the reporter gene. In this way, Hedgehog pathway signaling activity can be measured via the Gli-Luc response.
10t1/2(s12) cells are plated in a 96-well micro-titer plate (MTP) at 20,000 cells/well in full medium [DMEM with 10% FBS]. Then plates are placed in the incubator for incubation overnight (O/N), at 37° C. and 5% CO2. After 24 h, the medium is replaced with Luciferase-assay medium (DMEM with 0.5% FBS). Compounds are thawed and diluted in assay medium at 3:1000 (about 300-fold) resulting in a starting concentration of about 30 μM.
Subsequently, 150 μl of each 30 μM sample is added to the first wells (in triplicate). The MTP samples are then diluted at 3-fold dilutions to a total of seven wells, ultimately resulting in a regiment of seven dilutions in triplicate, for each compound. Next, the protein ligand OCT-SHH is diluted in Luciferase-assay medium and added to each well at a final concentration of 0.3 μg/ml. Plates are then returned to the incubator for further incubation O/N, at 37° C. and 5% CO2. After about 24 h, plates are removed from the incubator and the medium is aspirated/discarded. Wells are washed once with assay buffer [PBS+1 mM Mg^2+ and 1 mM Ca^2+]. Then 50 μl of assay buffer is added to each well. The Luciferase assay reagent is prepared as described by the vendor (LucLite kit from Packard), and 50 μl is added to each well. Plates are incubated at room temperature (RT) for about 30 minutes after which the signals are read, again at RT, on a Topcount (Packard).
The discovery of compounds that inhibit Shh-induced Gli-transcription exemplifies the utility of the claims in this patent.

`O=C(NCc1nc2ccccc2c(=O)n1-c1ccc(F)cc1)Nc1ccc(Cl)c(C(F)(F)F)c1` [Compound 5] and `O=C(NCc1nc2ccccc2c(=O)n1-c1ccc(F)cc1)Nc1ccc(Cl)c(Cl)c1` [Compound 68] cannot be ordered by IC50: less than 0.1 µM for the first, less than 1 µM for the second.

`O=C(NCc1nc2ccccc2c(=O)n1-c1ccc(F)cc1)Nc1cc(Cl)nc(Cl)c1` [Compound 6] and `CC(c1nc2ccccc2c(=O)n1-c1ccc(F)cc1)N(C)C(=O)Nc1cc(Cl)nc(Cl)c1` (stereo not drawn) [Compound 58] cannot be ordered by IC50: less than 0.5 µM for the first, less than 5 µM for the second.

`CC(c1nc2ccccc2c(=O)n1-c1ccc(F)cc1)N(C)C(=O)Nc1cccc(C(F)(F)F)c1` (stereo not drawn) [Compound 11] and `CC(c1nc2ccccc2c(=O)n1-c1ccc(F)cc1)N(C)C(=O)Nc1cccc(SC(F)(F)F)c1` (stereo not drawn) [Compound 52] cannot be ordered by IC50: less than 5 µM for the first, less than 1 µM for the second.

`CC(c1nc2ccccc2c(=O)n1-c1ccc(F)cc1)N(Cc1ccco1)C(=O)Nc1cccc(F)c1` (stereo not drawn) [Compound 31] and `CC(c1nc2ccccc2c(=O)n1-c1ccc(F)cc1)N(C)C(=O)Nc1cccc(F)c1` (stereo not drawn) [Compound 55] cannot be ordered by IC50: less than 10 µM for the first, less than 5 µM for the second.

`CC(c1nc2ccccc2c(=O)n1-c1ccc(F)cc1)N(C)C(=O)Nc1ccc([N+](=O)[O-])c(C(F)(F)F)c1` (stereo not drawn) [Compound 32] and `CC(c1nc2ccccc2c(=O)n1-c1ccc(F)cc1)N(C)C(=O)Nc1ccc(Cl)c(C(F)(F)F)c1` (stereo not drawn) [Compound 61] cannot be ordered by IC50: less than 5 µM for the first, less than 1 µM for the second.

`CCCN(C(=O)Nc1cccc(Cl)c1)C(C)c1nc2ccccc2c(=O)n1-c1ccc(F)cc1` (stereo not drawn) [Compound 34] and `CCCN(C(=O)Nc1cccc(OC)c1)C(C)c1nc2ccccc2c(=O)n1-c1ccc(F)cc1` (stereo not drawn) [Compound 38] cannot be ordered by IC50: less than 5 µM for the first, less than 5 µM for the second.

`CCCN(C(=O)Nc1cccc(C(F)(F)F)c1)C(C)c1nc2ccccc2c(=O)n1-c1ccc(F)cc1` (stereo not drawn) [Compound 36] and `CC(NC(=O)Nc1cccc(C(F)(F)F)c1)c1nc2ccccc2c(=O)n1-c1ccc(F)cc1` (stereo not drawn) [Compound 73] cannot be ordered by IC50: less than 5 µM for the first, less than 5 µM for the second.

`CCC(c1nc2ccccc2c(=O)n1-c1ccc(C)cc1)N(CCc1ccccc1)C(=O)CCCCF` (stereo not drawn) [Compound 39] and `CCCCc1ccc(C(=O)N(Cc2ccccc2)C(CC)c2nc3ccccc3c(=O)n2-c2ccc(C)cc2)cc1` (stereo not drawn) [Compound 40] cannot be ordered by IC50: less than 5 µM for the first, less than 10 µM for the second.

`CCCCCCCCC(=O)N(CCCCC)C(C)c1nc2ccccc2c(=O)n1-c1ccccc1` (stereo not drawn) [Compound 41] and `CCOC(=O)c1ccccc1NC(=O)N(C)C(C)c1nc2ccccc2c(=O)n1-c1ccc(F)cc1` (stereo not drawn) [Compound 63] cannot be ordered by IC50: less than 10 µM for the first, less than 10 µM for the second.

`CCC(=O)N1CCN(C(CC)c2nc3ccccc3c(=O)n2-c2ccc(C)cc2)C(C)C1` (stereo not drawn) [Compound 42] and `CC(c1nc2ccccc2c(=O)n1-c1ccc(F)cc1)N1CCN(C(=O)Nc2ccc(Cl)c(Cl)c2)CC1` (stereo not drawn) [Compound 43] cannot be ordered by IC50: less than 5 µM for the first, less than 10 µM for the second.

`O=C(NCc1nc2ccccc2c(=O)n1-c1ccc(F)cc1)Nc1cccc(C(F)(F)F)c1` [Compound 44] and `O=C(NCCCc1nc2ccccc2c(=O)n1-c1ccc(F)cc1)Nc1cccc(C(F)(F)F)c1` [Compound 74] cannot be ordered by IC50: less than 1 µM for the first, less than 5 µM for the second.

`CCC(c1nc2ccccc2c(=O)[nH]1)N1CCN(C(=O)Nc2ccc(Cl)c(Cl)c2)C(C)C1` (stereo not drawn) [Compound 45] and `CCC(c1nc2ccccc2c(=O)[nH]1)N1CCN(C(=O)c2ccc(-c3ccccc3)cc2)C(C)C1` (stereo not drawn) [Compound 46] cannot be ordered by IC50: less than 5 µM for the first, less than 0.5 µM for the second.

`CCCN(CCC(=O)NC1CCCc2ccccc21)C(=O)c1cc(OC)cc(OC)c1` (stereo not drawn) [Compound 47] and `CCC(C)N(CCC(=O)NC1CCCc2ccccc21)C(=O)COc1ccc(Cl)cc1` (stereo not drawn) [Compound 49] cannot be ordered by IC50: less than 5 µM for the first, less than 1 µM for the second.

`CCC(C)N(CCC(=O)NC1CCCc2ccccc21)C(=O)c1cccc2ccccc12` (stereo not drawn) [Compound 48] and `CCOOC(=O)c1cccc(NC(=O)N(C)C(C)c2nc3ccccc3c(=O)n2-c2ccc(F)cc2)c1` (stereo not drawn) [Compound 65] cannot be ordered by IC50: less than 0.5 µM for the first, less than 10 µM for the second.

`O=C(Cc1cccc(C(F)(F)F)c1)NCCc1nc2ccccc2c(=O)n1-c1ccc(F)cc1` [Compound 50] and `O=C(Nc1cccc(C(F)(F)F)c1)NC(c1nc2ccccc2c(=O)n1-c1ccc(F)cc1)C1CC1` (stereo not drawn) [Compound 75] cannot be ordered by IC50: less than 1 µM for the first, less than 5 µM for the second.

`CC(c1nc2ccccc2c(=O)n1-c1ccc(F)cc1)N(C)C(=O)Nc1cccc(C#N)c1` (stereo not drawn) [Compound 51] and `CC(C)c1cccc(NC(=O)N(C)C(C)c2nc3ccccc3c(=O)n2-c2ccc(F)cc2)c1` (stereo not drawn) [Compound 57] cannot be ordered by IC50: less than 5 µM for the first, less than 10 µM for the second.

`CC(c1nc2ccccc2c(=O)n1-c1ccc(F)cc1)N(C)C(=O)Nc1ccc(Cl)c(Cl)c1` (stereo not drawn) [Compound 53] and `CC(c1nc2ccccc2c(=O)n1-c1ccc(F)cc1)N(C)C(=O)Nc1ccc([N+](=O)[O-])c(Cl)c1` (stereo not drawn) [Compound 62] cannot be ordered by IC50: less than 1 µM for the first, less than 1 µM for the second.

`CC(c1nc2ccccc2c(=O)n1-c1ccc(F)cc1)N(C)C(=O)Nc1ccc(C(F)(F)F)cc1` (stereo not drawn) [Compound 54] and `CC(c1nc2ccccc2c(=O)n1-c1ccc(F)cc1)N(C)C(=O)Nc1ccc(SC(F)(F)F)cc1` (stereo not drawn) [Compound 60] cannot be ordered by IC50: less than 5 µM for the first, less than 5 µM for the second.

`CC(c1nc2ccccc2c(=O)n1-c1ccc(F)cc1)N(C)C(=O)Nc1ccc(-c2ccccc2)cc1` (stereo not drawn) [Compound 56] and `Cc1c(NC(=O)N(C)C(C)c2nc3ccccc3c(=O)n2-c2ccc(F)cc2)cccc1[N+](=O)[O-]` (stereo not drawn) [Compound 59] cannot be ordered by IC50: less than 10 µM for the first, less than 5 µM for the second.

`CC(c1nc2ccccc2c(=O)n1-c1ccc(F)cc1)N(C)C(=O)Nc1ccc([N+](=O)[O-])cc1Cl` (stereo not drawn) [Compound 64] and `CC(c1nc2ccccc2c(=O)n1-c1ccc(F)cc1)N(C)C(=O)Nc1ccc(Cl)cc1[N+](=O)[O-]` (stereo not drawn) [Compound 66] cannot be ordered by IC50: less than 10 µM for the first, less than 10 µM for the second.

`Cc1c(NC(=O)NCc2nc3ccccc3c(=O)n2-c2ccc(F)cc2)cccc1SC(F)(F)F` [Compound 67] and `COc1cccc(NC(=O)NCc2nc3ccccc3c(=O)n2-c2ccc(F)cc2)c1C` [Compound 71] cannot be ordered by IC50: less than 5 µM for the first, less than 10 µM for the second.

With `O=C(NCc1nc2ccccc2c(=O)n1-c1ccc(F)cc1)Nc1ccc(Cl)c([N+](=O)[O-])c1` [Compound 69] the IC50 was less than 0.5 µM.

tested on: mouse cornea; test: mouse corneal pocket model of angiogenesis; format: in vivo; conditions: Ptc1-lacZ corneas
Description: To confirm the angiogenic activity of hedgehog in another well accepted model of angiogenesis, we tested the ability of hedgehog protein to induce neovascularization in the mouse corneal model pocket model of angiogenesis.
Animals were anesthetized by pentobarbital intraperitoneal injection (160 mg/kg). Corneal pockets were created in the eyes of each mouse and a 0.34×0.34 mm sucrose albumin sulfate (Bukh Meditec, Vaerlose, DK) pellet coated with hydron polymer type NCC (Interferon Sciences, New Brunswick, N.J.) containing 1 of the agents indicated below was implanted into the corneal pocket. […] mice were divided into 5 groups: control buffer alone; VEGF 300 ng/pellet; Myr-Shh vehicle alone; Myr-Shh 1.5 microg/pellet […]; Myr-Shh+VEGF (1.5 microg/pellet +300 ng/pellet, respectively). Pellets were positioned 1.0 mm from the corneal limbus, and erythromycin ophthalmic ointment (E. Fourera) was applied to each operated eye. The corneas of all mice were routinely examined by slit-lamp biomicroscopy on postoperative day 6 after pellet implantation.
On the same day vessel length and corneal circumferential neovascularity (in degrees) were measured. After completing these measurements, C57BL/6J mice received an intravenous injection of […] of BS-1 lectin FITC-conjugated (Vector Laboratories, Burlingame, Calif.). Thirty minutes later, the animals were sacrificed. The eyes were enucleated and fixed in 1% paraformaldehyde solution. After fixation, the corneas were placed on glass slides and examined by fluorescence microscopy.
To determine the mechanism by which Shh induces angiogenesis both Shh and VEGF-stimulated corneas (see Example 3) were excised and X-gal stained as described in Example 1 after fixation of the whole eye for 1 hour in 1% paraformaldehyde followed by enucleation and fixation of the corneal hemisphere in 1% paraformaldehyde for 30 minutes. […] Endothelial cell immunostaining was done with a rat monoclonal antibody against mouse CD-31 (Pharmigen, San Diego, Calif.) followed by a biotinylated goat anti-rat immunoglobulin secondary antibody. Smooth muscle cells and pericytes were identified with a mouse monoclonal antibody against SM a-actin conjugated with alkaline-phosphatase (Sigma, St. Louis, Mo.) and fibroblasts were identified using an anti-vimentin antibody (Sigma, St. Louis, Mo.).
We then immunostained the Shh-induced corneas with a rabbit polyclonal anti-VEGF antibody (Santa Cruz Biotechnology, Santa Cruz, Calif.) with a biotinylated goat anti-rabbit immunoglobulin as secondary antibody.

In the case of VEGF [reference compound], the “X-gal staining (Ptc 1 expression) of corneas” value is reported as “did not stain with X-gal”.

same assay, conditions: compared with Shh

In the case of VEGF [reference compound], the “mean number of vascular lumens per cross section” value is reported as “higher”.

same assay, conditions: pellet: Myr-Shh 1.5 microg or VEGF 300 ng

VEGF [reference compound] showed a maximum vessel lengths of 700±70 um.

VEGF [reference compound] was tested, and the “vessel diameters (mean)” value was 8±3 um.

same assay, conditions: pellet: Myr-Shh 1.5 microg or VEGF 300 ng, day 6

For VEGF [reference compound], the neovascular growth was “significant neovascular growth”.
